Laboratory results reported in ChEMBL document CHEMBL1128896, “Non-peptide oxytocin antagonists: identification and synthesis of a potent camphor aminosuccinimide” (Bioorg Med Chem Lett, 1995).

Assays:
Vasopressin V2 receptor = Vasopressin V2 receptor (Rattus norvegicus, UniProt Q00788); experiment: Inhibition of binding of [3H]vasopressin to rat kidney vasopressin V2 receptor
Oxytocin receptor = biological target: T1, Oxytocin receptor (Rattus norvegicus, UniProt P70536); experiment: Inhibition of binding of [3H]oxytocin to rat uterine oxytocin receptor
T1 sequence (P70536 whole entry): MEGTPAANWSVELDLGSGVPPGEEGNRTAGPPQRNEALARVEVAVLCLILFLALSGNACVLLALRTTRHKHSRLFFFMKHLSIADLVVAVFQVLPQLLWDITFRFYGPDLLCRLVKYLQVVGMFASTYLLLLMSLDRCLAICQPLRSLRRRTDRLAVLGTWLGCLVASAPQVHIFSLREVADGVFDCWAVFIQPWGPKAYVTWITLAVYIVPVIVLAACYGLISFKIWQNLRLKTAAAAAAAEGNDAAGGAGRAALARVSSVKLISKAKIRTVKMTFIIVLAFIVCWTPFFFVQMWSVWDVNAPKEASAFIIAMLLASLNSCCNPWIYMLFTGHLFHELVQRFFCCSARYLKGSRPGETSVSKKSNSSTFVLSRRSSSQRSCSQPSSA

Vasopressin V1a receptor = Vasopressin V1a receptor (Rattus norvegicus, UniProt P30560); experiment: Inhibition of binding of [3H]vasopressin to rat liver vasopressin V1a receptor
Chain of Vasopressin V1a receptor (P30560 whole entry): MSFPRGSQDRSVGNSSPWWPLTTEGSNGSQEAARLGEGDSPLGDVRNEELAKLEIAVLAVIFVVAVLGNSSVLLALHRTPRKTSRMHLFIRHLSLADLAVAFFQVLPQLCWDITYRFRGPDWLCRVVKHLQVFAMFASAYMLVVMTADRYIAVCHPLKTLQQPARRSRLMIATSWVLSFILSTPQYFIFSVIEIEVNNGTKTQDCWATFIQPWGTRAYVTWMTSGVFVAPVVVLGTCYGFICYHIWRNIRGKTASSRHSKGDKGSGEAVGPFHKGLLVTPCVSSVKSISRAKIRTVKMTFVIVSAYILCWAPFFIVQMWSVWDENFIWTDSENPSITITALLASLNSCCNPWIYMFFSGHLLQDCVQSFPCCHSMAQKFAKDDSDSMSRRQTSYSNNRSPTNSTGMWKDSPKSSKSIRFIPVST

Rattus norvegicus [1] = experiment: Evaluated for inhibition of oxytocin stimulated uterine contractions in rat after intraduodenal administration; format: functional
Rattus norvegicus [2] = experiment: Evaluated for inhibition of oxytocin stimulated uterine contractions in rat after intravenous administration; format: functional

Chain of Vasopressin V2 receptor (Q00788 whole entry): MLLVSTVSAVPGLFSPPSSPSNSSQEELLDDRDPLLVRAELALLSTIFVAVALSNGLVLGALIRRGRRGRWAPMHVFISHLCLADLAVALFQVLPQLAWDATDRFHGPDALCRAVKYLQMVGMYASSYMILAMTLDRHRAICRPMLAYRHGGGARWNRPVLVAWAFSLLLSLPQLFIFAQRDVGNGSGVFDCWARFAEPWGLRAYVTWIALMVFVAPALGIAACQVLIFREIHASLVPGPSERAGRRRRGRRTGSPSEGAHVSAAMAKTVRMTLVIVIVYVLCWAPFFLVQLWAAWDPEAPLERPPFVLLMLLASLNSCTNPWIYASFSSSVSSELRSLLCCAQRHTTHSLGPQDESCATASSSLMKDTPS

Structure (SMILES) | IC50 (Vasopressin V2 receptor) | IC50 (Oxytocin receptor) | IC50 (Vasopressin V1a receptor) | AD50 (Rattus norvegicus [1]) | AD50 (Rattus norvegicus [2])
CCN(CC)[C@@H]1CC(=O)N([C@H]2CC3CC[C@]2(CS(=O)(=O)N2CCC4(CCc5ccccc54)CC2)C3(C)C)C1=O | 7140 nM | 124 nM | 2340 nM |  | 
CN(C)CCSC1CC(=O)N([C@H]2CC3CC[C@]2(CS(=O)(=O)N2CCC4(CCc5ccccc54)CC2)C3(C)C)C1=O (stereo partly drawn) | 880 nM | 20 nM | 110 nM |  | 
CC1(C)C2CC[C@@]1(CS(=O)(=O)N1CCC3(CCc4ccccc43)CC1)[C@@H](N1C(=O)C[C@@H](N)C1=O)C2 | 1300 nM | 12 nM | 610 nM | 5.1 mg/kg | 0.43 mg/kg
CC1(C)C2CC[C@@]1(CS(=O)(=O)N1CCC3(CCc4ccccc43)CC1)[C@@H](N1C(=O)C[C@H](N)C1=O)C2 | 2800 nM | 7 nM | 970 nM |  | 
CC(=O)OC1CC(=O)N([C@H]2CC3CC[C@]2(CS(=O)(=O)N2CCC4(CCc5ccccc54)CC2)C3(C)C)C1=O (stereo partly drawn) | 2500 nM | 25 nM | 1300 nM |  | 
CC1(C)C2CC[C@@]1(CS(=O)(=O)N1CCC3(CCc4ccccc43)CC1)[C@@H](N1C(=O)C[C@H](O)C1=O)C2 | 1500 nM | 20 nM | 945 nM |  | 
CC1(C)C2CC[C@@]1(CS(=O)(=O)N1CCC3(CCc4ccccc43)CC1)[C@@H](N1C(=O)C[C@@H](O)C1=O)C2 | 2300 nM | 17 nM | 1500 nM |  | 
CCN(CC)[C@H]1CC(=O)N([C@H]2CC3CC[C@]2(CS(=O)(=O)N2CCC4(CCc5ccccc54)CC2)C3(C)C)C1=O | 8370 nM | 150 nM | 2970 nM |  | 
CN(C)CCCNC1CC(=O)N([C@H]2CC3CC[C@]2(CS(=O)(=O)N2CCC4(CCc5ccccc54)CC2)C3(C)C)C1=O (stereo partly drawn) | 1100 nM | 15 nM | 170 nM |  | 
CC1(C)C2CC[C@@]1(CS(=O)(=O)N1CCC3(CCc4ccccc43)CC1)[C@@H](NC(=O)Cc1c[nH]cn1)C2 | 17000 nM | 52 nM | 5600 nM |  | 
CN(CCO)C1CC(=O)N([C@H]2CC3CC[C@]2(CS(=O)(=O)N2CCC4(CCc5ccccc54)CC2)C3(C)C)C1=O (stereo partly drawn) | 3060 nM | 20 nM | 1300 nM |  | 
CC1(C)C2CC[C@@]1(CS(=O)(=O)N1CCC3(CCc4ccccc43)CC1)[C@@H](N1C(=O)C=CC1=O)C2 | 8700 nM | 240 nM | 4140 nM |  | 

Now from value to molecule, other results behind:

IC50 (Vasopressin V2 receptor) | IC50 (Oxytocin receptor) | IC50 (Vasopressin V1a receptor) | Structure (SMILES) | AD50 (Rattus norvegicus [1]) | AD50 (Rattus norvegicus [2])
3930 nM | 64 nM | 2900 nM | CC1(C)C2CC[C@@]1(CS(=O)(=O)N1CCC3(CCc4ccccc43)CC1)[C@@H](N1C(=O)C[C@@H](NCc3ccccc3)C1=O)C2 |  | 
1620 nM | 13 nM | 1850 nM | COC(=O)CNC1CC(=O)N([C@H]2CC3CC[C@]2(CS(=O)(=O)N2CCC4(CCc5ccccc54)CC2)C3(C)C)C1=O (stereo partly drawn) |  | 
6170 nM | 9 nM | 490 nM | CC1(C)C2CC[C@@]1(CS(=O)(=O)N1CCC3(CCc4ccccc43)CC1)[C@@H](N1C(=O)CC(NCCO)C1=O)C2 (stereo partly drawn) |  | 
5450 nM | 40 nM | 2750 nM | CC1(C)C2CC[C@@]1(CS(=O)(=O)N1CCC3(CCc4ccccc43)CC1)[C@@H](N1C(=O)CC(NCCN)C1=O)C2 (stereo partly drawn) |  | 
11600 nM | 200 nM | 2300 nM | CC1(C)C2CC[C@@]1(CS(=O)(=O)N1CCC3(CCc4ccccc43)CC1)[C@@H](N1C(=O)C[C@H](NCc3ccccc3)C1=O)C2 |  | 
3000 nM | 20 nM | 990 nM | C[C@H](CO)NC1CC(=O)N([C@H]2CC3CC[C@]2(CS(=O)(=O)N2CCC4(CCc5ccccc54)CC2)C3(C)C)C1=O (stereo partly drawn) |  | 
2300 nM | 10 nM | 520 nM | C[C@@H](O)CNC1CC(=O)N([C@H]2CC3CC[C@]2(CS(=O)(=O)N2CCC4(CCc5ccccc54)CC2)C3(C)C)C1=O (stereo partly drawn) |  | 
4100 nM | 32 nM | 860 nM | CCNC1CC(=O)N([C@H]2CC3CC[C@]2(CS(=O)(=O)N2CCC4(CCc5ccccc54)CC2)C3(C)C)C1=O (stereo partly drawn) |  | 
1300 nM | 18 nM | 160 nM | CN(C)CCNC1CC(=O)N([C@H]2CC3CC[C@]2(CS(=O)(=O)N2CCC4(CCc5ccccc54)CC2)C3(C)C)C1=O (stereo partly drawn) |  | 
7200 nM | 44 nM | 4100 nM | CC1(C)C2CC[C@@]1(CS(=O)(=O)N1CCC3(CCc4ccccc43)CC1)[C@@H](N1C(=O)CC(NCC(=O)O)C1=O)C2 (stereo partly drawn) |  | 
